pIC50: −log10 of the molar value.

The results in this text go back to patent US20250034134A1, “15-PGDH INHIBITOR AND USE THEREOF” (Wuhan Humanwell Innovative Drug Research and Development …, priority 2021, published 2025).

One data set concerns IBD in mice. Nature of the data set: Efficacy on IBD in mice. As to conditions: for DAI / body weight / inflammatory cell infiltration score of colon tissues / tissue injury score of colon tissues: vs G2 model group; for Colon weight CW (g): day 0 to day 9, DSS mice. It counts as in vivo, mouse. As for the experimental part:
The mice in G2 to G6 were given 2% DSS aqueous solution on day 0 to day 6, normal water on […], vehicle/positive/test substance on day 0 to day 9, and euthanized on day 10 for necropsy. Colon weight (CW) and colon length (CL) were measured and colon tissues […] were subjected to histopathological examination.

The next data set has as its target 15-PGDH (Homo sapiens (Human), UniProt P15428). As to the kind of experiment: Inhibition test of compounds on 15-PGDH enzyme. The format is biochemical. As for the experimental part: 15-PGDH (R&D Systems, Cat. No.: 5660-DH-010) was prepared to twice the final concentration, i.e., 30 nM, using Assay Buffer (50 mM Tris-HCl, pH 7.5, 0.01vol % Tween 20). The obtained mixture was then added to a 384-well white plate (Cisbio Bioassays, Cat. No. 66PL384025) at 8 μL/well. Negative control wells (with Assay Buffer only and without enzyme) were set. The compound was then prepared to 4 times the final concentration using Assay Buffer, i.e., diluted 3-fold to 10 concentrations starting from 4000 nM. The obtained mixture was added to the above white plate at 4 μL/well, mixed well, centrifuged at 1000 rpm for 1 minute, and incubated at 25° C. for 10 minutes. Both positive control wells (with 15-PGDH only) and negative control wells (without 15-PGDH) were set. A mixture of NAD^+(Select, Cat. No. S2518) and PGE2 (R&D Systems, Cat. No.: 2296/10) was then prepared using Assay Buffer. NAD^+ and PGE2 were prepared to four times their final concentrations, i.e., 2 mM and 0.12 mM, respectively, using Assay Buffer. The obtained mixture was then added to the above white plate at 4 μL/well, mixed well, centrifuged at 1000 rpm for 1 minute, and incubated at 25° C. for 30 minutes for the reaction. The fluorescence was detected at an excitation wavelength of 340 nm and an emission wavelength of 485 nm using instrument TECAN SPARK 20M. The IC50 value was calculated using four-parameter fitting with GraphPad Prism 8.0.

The test system of the next data set is A549 cells. As to the kind of experiment: Effect of compounds on PGE2 levels in A549 cell supernatant. It counts as cell-based. As to conditions: 20 nM compound, about 12 hours, after IL-10 stimulation; ELISA. The method, then:
A549 cells (Procell, Wuhan) were cultured in F12K+10% FBS. The cells with good status in log phase were selected for the experiment, digested, counted, and inoculated into a 24-well plate at 8000 cells per well. The cells were cultured in a 37° C., 5% CO2 incubator overnight. After adherence, the cells were transferred to a culture medium containing 0.5% FBS and cultured for about 10 hours. IL-10 was added to each well (final concentration of 20 ng/mL, 1 mL per well), and a control group (without IL-10) was set up. After stimulation with IL-10 for about 24 hours, the cell culture medium of each well was aspirated and discarded, and the wells were gently washed with fresh culture medium containing 0.5% FBS. 400 μL of culture medium containing the compound of different concentrations (20 nM and 2500 nM) was added to each well and cultured for about 12 hours. The supernatant was collected and PGE2 was detected using ELISA kit (R&D Systems, Cat. No.: KGE004B).

A short description of another data set: Pharmacokinetics in mice. The format is in vivo. As to conditions: mouse, po; male CD-1 mice, 10 mg/kg, gavage, plasma. As for the experimental part: The pharmacokinetic properties of the compounds of the present disclosure in mice were determined with reference to the following experimental methods.
Three male CD-1 mice were used, administered at a dose of 10 mg/kg, the route of administration was by gavage, and the vehicle was 5% DMSO+10% Solutol+85% Saline. The mice were fasted overnight, and the time points of blood collection were before administration and at 15 minutes, 30 minutes, 1 hour, 2 hours, 4 hours, 8 hours, and 24 hours after administration. Blood samples were centrifuged at 6800 g for 6 minutes at 2 to 8° C., and plasma was collected and stored at −80° C. 10 μL of plasma at each time point was taken, and added with 200 μL of methanol containing 100 ng/mL internal standard. The mixture was vortexed, mixed evenly, and then centrifuged at 18000 g for 7 minutes at 2 to 8° C. 200 μL of the mixture was transferred to a 96-well injection plate for LC-MS/MS quantitative analysis. The main pharmacokinetic parameters were analyzed using WinNonlin 7.0 software with non-compartmental model.

15-PGDH, sequence (P15428 whole entry): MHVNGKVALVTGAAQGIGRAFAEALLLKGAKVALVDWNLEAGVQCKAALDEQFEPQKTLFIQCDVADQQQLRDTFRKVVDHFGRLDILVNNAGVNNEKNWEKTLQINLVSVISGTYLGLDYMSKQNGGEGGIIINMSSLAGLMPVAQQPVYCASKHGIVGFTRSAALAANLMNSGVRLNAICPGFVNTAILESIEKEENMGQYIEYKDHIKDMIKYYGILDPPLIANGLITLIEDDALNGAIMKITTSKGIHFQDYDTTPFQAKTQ

`Cn1nc2cc(N3CC4CC4c4cc(C(=O)N5CCC(F)(F)CC5)cnc43)ccn2c1=O` (single isomer, unassigned) [Compound I-3B]: in the data set on IBD in mice (G4, 2.5 mg/kg bid), the DAI entry is reported as “significant decrease”, the body weight result is “increase”, the “inflammatory cell infiltration score of colon tissues” value is recorded as “significant decrease” and the “tissue injury score of colon tissues” value is given as “significant decrease”. Further, the “Colon weight CW (g)” value in the data set with IBD in mice (G4 low-dose, 2.5 mg/kg bid) is recorded as “significant decrease”. Besides, in the data set on IBD in mice (G5, 5 mg/kg bid), the DAI entry was “significant decrease”, the body weight entry is listed as “significant increase”, the “inflammatory cell infiltration score of colon tissues” value is given as “significant decrease” and the “tissue injury score of colon tissues” value was “significant decrease”. Moreover, the “Colon weight CW (g)” value with IBD in mice (G5 high-dose, 5 mg/kg bid) is on record as “significant decrease”.

Regarding `Cn1nc2cc(N3CC4CC4c4cc(C(=O)N5CC6CC6C5)cnc43)ccn2c1=O` (stereo not shown) [Compound I-29, 7-(6-(3-azabicyclo[3.1.0]hexane-3-carbonyl)-1,1a,2,7b-tetrahydro-3H-cyclopropa[c][1,8]naphthyridin-3-yl)-2-methyl-[1,2,4]triazolo[4,3-a]pyridin-3(2H)-one], at 15-PGDH, the pIC50 is 8.28. Besides, the “Fold increase of PGE2 in A549 cell supernatant” value (“Fold increase of PGE2” for short) in the data set with A549 cells came out at 2.3.

Compound `Cn1nc2cc(N3CC4CC4c4cc(C(=O)N5CCCC(F)C5)cnc43)ccn2c1=O` (stereo not shown) [Compound I-27, 7-(6-(3-fluoropiperidine-1-carbonyl)-1,1a,2,7b-tetrahydro-3H-cyclopropa[c][1,8]naphthyridin-3-yl)-2-methyl-[1,2,4]triazolo[4,3-a]pyridin-3(2H)-one] gave a pIC50 on 15-PGDH of 8.24. In the data set with A549 cells, the “Fold increase of PGE2” value turned out to be 2.60.

In the case of `CN1C(=O)c2ncc(N3CC4CC4c4cc(C(=O)N5CCC(F)(F)CC5)cnc43)cc2C12CC2` (stereo not shown) [Compound I-19, 3′-(6-(4,4-difluoropiperidine-1-carbonyl)-1,1a,2,7b-tetrahydro-3H-cyclopropa[c][1,8]naphthyridin-3-yl)-6′-methylspiro[cyclopropane-1,5′-pyrrolo[3,4-b]pyridin]-7′(6′H)-one], the pIC50 against 15-PGDH was 8.43. Besides, in the data set on A549 cells, the “Fold increase of PGE2” value is 4.72.

As to `Cn1ccc2cc(N3CC4CC4c4cc(C(=O)N5CCC(F)(F)CC5)cnc43)ccc2c1=O` (stereo not shown) [Compound I-12, 6-(6-(4,4-difluoropiperidine-1-carbonyl)-1,1a,2,7b-tetrahydro-3H-cyclopropa[c][1,8]naphthyridin-3-yl)-2-methylisoquinolin-1(2H)-one], at 15-PGDH, the negative logarithm of the IC50 (pIC50) was 8.68. In the data set on A549 cells, the “Fold increase of PGE2” value is listed as 5.44. For the same compound, in “Pharmacokinetics in mice”, the AUC(0-t) came out at 107000 ng·h/mL and the highest level (Cmax) was 14800 ng/mL.

Consider `Cn1ncc2cc(N3CC4CC4c4cc(C(=O)N5CCC(F)(F)CC5)ccc43)ccc2c1=O` (stereo not shown) [Compound I-13, 6-(6-(4,4-difluoropiperidine-1-carbonyl)-1,1a,2,7b-tetrahydro-3H-cyclopropa[c]quinolin-3-yl)-2-methylphthalazin-1(2H)-one], for which the pIC50 against 15-PGDH was 8.39. In addition, the “Fold increase of PGE2” value with A549 cells was 6.1.

At 15-PGDH, `Cn1nc2cc(N3CC4CC4c4cc(C(=O)N5CCC[C@@H](CF)C5)cnc43)ccn2c1=O` (stereo partly drawn) [Compound I-30, 7-(6-((R)-3-(fluoromethyl)piperidine-1-carbonyl)-1,1a,2,7b-tetrahydro-3H-cyclopropa[c][1,8]naphthyridin-3-yl)-2-methyl-[1,2,4]triazolo[4,3-a]pyridin-3(2H)-one] had a negative logarithm of the IC50 (pIC50) of 8.22. The “Fold increase of PGE2” value with A549 cells is on record as 2.72.

As for `Cn1nc2cc(N3CC4CC4c4cc(C(=O)N5CCC6(CC5)CC6)cnc43)ccn2c1=O` (stereo not shown) [Compound I-28, 7-(6-(6-azaspiro[2.5]octane-6-carbonyl)-1,1a,2,7b-tetrahydro-3H-cyclopropa[c][1,8]naphthyridin-3-yl)-2-methyl-[1,2,4]triazolo[4,3-a]pyridin-3(2H)-one], the pIC50 on 15-PGDH was 8.77. Further, the “Fold increase of PGE2” value in the data set on A549 cells is listed as 4.05. Moreover, in “Pharmacokinetics in mice”, the AUC(0-t) is 10700 ng·h/mL and the highest level (Cmax) was 5040 ng/mL.
